# Legend:
# Type in all cases: functional
# [1] = system: Aspergillus niger; test: Antifungal activity against Aspergillus niger KCTC 1231 after 2 days; conditions: KCTC 1231, 48 h
# [2] = system: Cryptococcus neoformans; test: Antifungal activity against Cryptococcus neoformans KCCM 50564 after 1 day; conditions: KCCM 50564, 24 h
# [3] = system: Candida tropicalis; test: Antifungal activity against Candida tropicalis KCCM 50662 after 1 day; conditions: KCCM 50662, 24 h
# [4] = system: Candida albicans; test: Antifungal activity against Candida albicans KCCM 50235 after 1 day; conditions: KCCM 50235, 24 h
# [5] = system: Pichia kudriavzevii; test: Antifungal activity against Candida krusei KCCM 11655 after 1 day; conditions: KCCM 11655, 24 h
SMILES,MIC [1] [µg/mL],MIC [2] [µg/mL],MIC [3] [µg/mL],MIC [4] [µg/mL],MIC [5] [µg/mL]
COC(=O)c1c2c(n(-c3ccc(OC)cc3)c1N)C(=O)c1ncccc1C2=O,50,> 100,> 100,> 100,12.5
CCOC(=O)c1c2c(n(-c3ccc(Cl)cc3)c1N)C(=O)c1ncccc1C2=O,6.3,50,3.2,> 100,> 100
CCOC(=O)c1c2c(n(-c3ccc(O)cc3)c1N)C(=O)c1ncccc1C2=O,25,12.5,0.6,3.2,12.5
COC(=O)c1c2c(n(-c3ccc(C)cc3)c1N)C(=O)c1ncccc1C2=O,> 100,12.5,100,100,12.5
CCOC(=O)c1c2c(n(-c3ccc(C)cc3)c1N)C(=O)c1ncccc1C2=O,25,12.5,3.2,> 100,12.5
OC(Cn1cncn1)(Cn1cncn1)c1ccc(F)cc1F [FLUCONAZOLE],50,50,6.3,12.5,25
CCn1c(N)c(C#N)c2c1C(=O)c1ccccc1C2=O,25,12.5,25,25,12.5
Cc1ccc(-n2c(N)c(C#N)c3c2C(=O)c2ccccc2C3=O)cc1,> 100,100,> 100,> 100,3.2
CCOC(=O)c1c2c(n(-c3ccc(Br)cc3)c1N)C(=O)c1ncccc1C2=O,50,25,3.2,50,> 100
CCOC(=O)c1c2c(n(-c3ccc(OC)cc3)c1N)C(=O)c1ncccc1C2=O,25,50,12.5,> 100,> 100
CCOC(=O)c1c2c(n(-c3ccccc3)c1N)C(=O)c1ncccc1C2=O,50,50,6.3,> 100,> 100
CCOC(=O)c1c2c(n(-c3ccc(F)c(F)c3)c1N)C(=O)c1ncccc1C2=O,25,50,50,1.6,25
CCOC(=O)c1c2c(n(-c3ccc(F)cc3)c1N)C(=O)c1ncccc1C2=O,50,25,6.3,> 100,> 100
N#Cc1c2c(n(-c3ccccc3)c1N)C(=O)c1ccccc1C2=O,> 100,100,100,100,3.2
Nc1nc(=O)[nH]cc1F [FLUCYTOSINE],50,12.5,12.5,6.3,6.3
CCOC(=O)c1c2c(n(-c3ccc(I)cc3)c1N)C(=O)c1ncccc1C2=O,12.5,25,3.2,25,25
COC(=O)c1c2c(n(-c3ccccc3)c1N)C(=O)c1ncccc1C2=O,50,> 100,> 100,> 100,50
Nc1ccc(O)c2ncccc12,> 100,100,> 100,> 100,100
Cn1c(N)c(C#N)c2c1C(=O)c1ccccc1C2=O,25,12.5,6.3,12.5,12.5
CCOC(=O)c1c2c(n(-c3ccc(C(F)(F)F)cc3)c1N)C(=O)c1ncccc1C2=O,12.5,12.5,0.8,6.3,6.3

# — ChEMBL document CHEMBL1139244, “Synthesis and antifungal activity of 1H-pyrrolo[3,2-g]quinoline-4,9-diones and 4,9-dioxo-4,9-dihydro-1H-benzo[f]indoles” (2009)
